The source of these data is patent US12679878B2, “CRF2 receptor agonists and their use in therapy” (SANOFI, priority 2020, dated 2026).

SMILES strings stand for the structures. Starred links: 1 amine or outer side, 2 acyl side, 3 side chain; linkers in the order of their positions; H or OH if unused. Non-standard residues stand in square brackets, D forms with d. Residues, ends and D or L forms follow the SMILES beside them. Groups on a side chain read outwards from the residue. *: point of attachment. C18 diacid = O=C(O)CCCCCCCCCCCCCCCCC(=O)*; γGlu = O=C(O)[C@H](CCC(=O)[*:2])N[*:1]; AEEA = NCCOCCOCC(=O)O; Aib = CC(C)(N)C(=O)O

One series concerns the target T1, CRF1R receptor (Homo sapiens, UniProt P34998).
T1 construct: host or cells: CHO-K1 clone 2
T1 sequence (P34998 24-415): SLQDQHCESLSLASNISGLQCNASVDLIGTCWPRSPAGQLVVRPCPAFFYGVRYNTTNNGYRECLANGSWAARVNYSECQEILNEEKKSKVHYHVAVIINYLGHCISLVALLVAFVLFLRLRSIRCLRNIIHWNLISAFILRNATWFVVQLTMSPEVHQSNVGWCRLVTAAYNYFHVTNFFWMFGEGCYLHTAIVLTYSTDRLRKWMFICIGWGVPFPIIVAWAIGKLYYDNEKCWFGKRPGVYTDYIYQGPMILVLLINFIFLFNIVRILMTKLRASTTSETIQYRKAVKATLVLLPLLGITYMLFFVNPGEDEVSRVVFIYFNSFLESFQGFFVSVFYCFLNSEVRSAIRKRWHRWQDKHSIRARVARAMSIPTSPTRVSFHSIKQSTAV
Description: cAMP activity at anti-target CRF1R, CRF1R-overexpression CHO cell line (Example 9). Type of series: cell-based. Particulars: CRF1R-overexpression CHO cell line; for EC50: 0% HSA; for Emax: read-out: Emax (%). The procedure, abridged: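 Using thawed CRF1R-overexpressing CHO cells at 2000 per well, compound is applied for 30 min at RT in HBSS/HEPES buffer with IBMX. Cellular cAMP content is determined via HTRF, and percent activity is calculated against 1000 nM UCN2 defined as 100%.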

A short description of series [1]: Physical stability, Thioflavin T fibrillation assay (Example 14). Format: physicochemical. Particulars: Buffer B: 100 mM acetate buffer, pH 4.5, 2.7 mg/ml m-cresol; 3 mg/ml; 37° C. shaking. An outline of the steps:
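Fibrillation tendency was judged from lag time and rise in Thioflavin T fluorescence, measured every 20 minutes over eight replicates per sample. Peptides at 3 mg/ml final were held at 37° C under cycles of 10 s shaking (960 rpm) and 50 s rest.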

Series [2] can be described thus: Chemical stability, purity loss by UPLC-UV after 28 days at 40° C. vs 5° C., pH 4.5 acetate buffer (Example 12). Format: physicochemical. The note with it: 28 days 40° C. vs 5° C.; pH 4.5, 20 mM acetate buffer; 300 μM. An outline of the steps: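 300 μM compound (purity-corrected) in 20 mM acetate buffer, pH 4.5, stored 28 days at 5 and 40° C. Purity by UPLC-UV as compound peak area over total peak area. Value is the purity difference between 5° C. and 40° C. samples, relative to the 5° C. purity, in percent.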

For the compound `CC[C@H](C)[C@H](N)C(=O)N[C@H](C(=O)N[C@@H](CC(C)C)C(=O)N[C@@H](CO)C(=O)N[C@@H](CC(C)C)C(=O)N[C@@H](CC(=O)O)C(=O)N[C@H](C(=O)N1CCC[C@H]1C(=O)N[C@H](C(=O)N[C@@H](CCCCN)C(=O)N[C@@H](CC(C)C)C(=O)N[C@@H](CCCCNC(=O)COCCOCCNC(=O)COCCOCCNC(=O)CC[C@H](NC(=O)CCCCCCCCCCCCCCCCC(=O)O)C(=O)O)C(=O)N[C@@H](CCCCN)C(=O)N[C@H](C(=O)N[C@@H](CC(C)C)C(=O)N[C@@H](CC(C)C)C(=O)N[C@@H](CCCCN)C(=O)N[C@@H](CCC(N)=O)C(=O)N[C@@H](CCC(=O)O)C(=O)N[C@@H](CCCNC(=N)N)C(=O)N[C@@H](CCC(N)=O)C(=O)N[C@@H](CCCCN)C(=O)N[C@@H](CCCCN)C(=O)NC(C)(C)C(=O)N[C@@H](CCCNC(=N)N)C(=O)N[C@@H](CCC(=O)O)C(=O)N[C@@H](CCC(N)=O)C(=O)N[C@@H](C)C(=O)N[C@@H](CCC(=O)O)C(=O)N[C@@H](CCCCN)C(=O)N[C@@H](CC(N)=O)C(=O)N[C@@H](CCCCN)C(=O)N[C@@H](CCC(N)=O)C(=O)N[C@H](C(=O)N[C@@H](CC(C)C)C(=O)N[C@@H](C)C(=O)N[C@@H](CCC(N)=O)C(=O)N[C@H](C(N)=O)C(C)C)[C@@H](C)CC)[C@@H](C)CC)[C@@H](C)CC)C(C)C)C(C)C` [compound 99] (H-IVLSLDVPIKLK([AEEA-AEEA-γGlu-C18 diacid])KILLKQERQKK[Aib]REQAEKNKQILAQV-NH2), on CRF1R receptor, the EC50 (usually the concentration at which the effect is half-maximal) was greater than 1000 nM and the Emax (in general, the greatest response seen or fitted, relative to the assay's reference) was 3.25%. In addition, in series [1], the “Increase in FI (fluorescence intensity)” value was “No” and the “Lag time” value is recorded as greater than 45 h.

On to `CC[C@H](C)[C@H](N)C(=O)N[C@H](C(=O)N[C@@H](CC(C)C)C(=O)N[C@@H](CO)C(=O)N[C@@H](CC(C)C)C(=O)N[C@@H](CC(=O)O)C(=O)N[C@@H](C(=O)N1CCC[C@H]1C(=O)N[C@H](C(=O)N[C@@H](CCCCN)C(=O)N[C@@H](CC(C)C)C(=O)N[C@@H](CCCCNC(=O)COCCOCCNC(=O)COCCOCCNC(=O)CC[C@H](NC(=O)CCCCCCCCCCCCCCCCC(=O)O)C(=O)O)C(=O)N[C@@H](CCC(N)=O)C(=O)N[C@H](C(=O)N[C@@H](CC(C)C)C(=O)N[C@@H](CC(C)C)C(=O)N[C@@H](CCCCN)C(=O)N[C@@H](CCC(N)=O)C(=O)N[C@@H](CCC(=O)O)C(=O)N[C@@H](CCCNC(=N)N)C(=O)N[C@@H](CCC(N)=O)C(=O)N[C@@H](CCCCN)C(=O)NC(C)(C)C(=O)N[C@@H](CCC(N)=O)C(=O)N[C@@H](CCCNC(=N)N)C(=O)N[C@@H](CCC(N)=O)C(=O)N[C@@H](CCC(N)=O)C(=O)N[C@@H](C)C(=O)N[C@@H](CCC(=O)O)C(=O)N[C@@H](CCCCN)C(=O)N[C@@H](CC(N)=O)C(=O)N[C@@H](CCCCN)C(=O)N[C@@H](CCC(N)=O)C(=O)N[C@H](C(=O)N[C@@H](CC(C)C)C(=O)N[C@@H](C)C(=O)N[C@@H](CCC(N)=O)C(=O)N[C@H](C(N)=O)C(C)C)[C@@H](C)CC)[C@@H](C)CC)[C@@H](C)CC)C(C)C)C(C)C` [compound 135] (H-IVLSLD[dV]PIKLK([AEEA-AEEA-γGlu-C18 diacid])QILLKQERQK[Aib]QRQQAEKNKQILAQV-NH2; N-terminus assumed), for which, at CRF1R receptor, the EC50 was greater than 1000 nM and the Emax worked out at 28.4%. In series [1], the “Increase in FI (fluorescence intensity)” value was “No” and the “Lag time” value is reported as greater than 45 h. In addition, the “Relative purity loss [%]” value in series [2] was determined as 3.55%.

For the compound `CC[C@H](C)[C@H](N)C(=O)N[C@H](C(=O)N[C@@H](CC(C)C)C(=O)N[C@@H](CO)C(=O)N[C@@H](CC(C)C)C(=O)N[C@@H](CC(=O)O)C(=O)N[C@@H](C(=O)N1CCC[C@H]1C(=O)N[C@H](C(=O)N[C@@H](CCCCN)C(=O)N[C@@H](CC(C)C)C(=O)N[C@@H](CCCCNC(=O)COCCOCCNC(=O)COCCOCCNC(=O)CC[C@H](NC(=O)CCCCCCCCCCCCCCCCC(=O)O)C(=O)O)C(=O)N[C@@H](CCC(N)=O)C(=O)N[C@H](C(=O)N[C@@H](CC(C)C)C(=O)N[C@@H](CC(C)C)C(=O)N[C@@H](CCCCN)C(=O)N[C@@H](CCC(N)=O)C(=O)N[C@@H](CCC(=O)O)C(=O)N[C@@H](CCCNC(=N)N)C(=O)N[C@@H](CCC(N)=O)C(=O)N[C@@H](CCCCN)C(=O)N[C@@H](CCCCN)C(=O)NC(C)(C)C(=O)N[C@@H](CCCNC(=N)N)C(=O)N[C@@H](CCC(N)=O)C(=O)N[C@@H](CCCCN)C(=O)N[C@@H](C)C(=O)N[C@@H](CCC(=O)O)C(=O)N[C@@H](CCCCN)C(=O)N[C@@H](CC(N)=O)C(=O)N[C@@H](CCCCN)C(=O)N[C@@H](CCC(N)=O)C(=O)N[C@H](C(=O)N[C@@H](CC(C)C)C(=O)N[C@@H](C)C(=O)N[C@@H](CCC(N)=O)C(=O)N[C@H](C(N)=O)C(C)C)[C@@H](C)CC)[C@@H](C)CC)[C@@H](C)CC)C(C)C)C(C)C` [compound 136] (H-IVLSLD[dV]PIKLK([AEEA-AEEA-γGlu-C18 diacid])QILLKQERQKK[Aib]RQKAEKNKQILAQV-NH2; N-terminus assumed), at CRF1R receptor, the EC50 is greater than 1000 nM and the Emax turned out to be 21.8%. For the same compound, the “Relative purity loss [%]” value in series [2] turned out to be 3.10%.

As to `CC[C@H](C)[C@H](N)C(=O)N[C@H](C(=O)N[C@@H](CC(C)C)C(=O)N[C@@H](CO)C(=O)N[C@@H](CC(C)C)C(=O)N[C@@H](CC(=O)O)C(=O)N[C@@H](C(=O)N1CCC[C@H]1C(=O)N[C@H](C(=O)N[C@@H](CCCCN)C(=O)N[C@@H](CC(C)C)C(=O)N[C@@H](CCCCNC(=O)COCCOCCNC(=O)COCCOCCNC(=O)CC[C@H](NC(=O)CCCCCCCCCCCCCCCCC(=O)O)C(=O)O)C(=O)N[C@@H](CCC(N)=O)C(=O)N[C@H](C(=O)N[C@@H](CC(C)C)C(=O)N[C@@H](CC(C)C)C(=O)N[C@@H](CCCCN)C(=O)N[C@@H](CCC(N)=O)C(=O)N[C@@H](CCC(=O)O)C(=O)N[C@@H](CCCNC(=N)N)C(=O)N[C@@H](CCC(N)=O)C(=O)N[C@@H](CCCCN)C(=O)N[C@@H](CCCCN)C(=O)N[C@@H](CCC(N)=O)C(=O)N[C@@H](CCCNC(=N)N)C(=O)N[C@@H](CCC(=O)O)C(=O)N[C@@H](CCC(N)=O)C(=O)N[C@@H](C)C(=O)N[C@@H](CCC(=O)O)C(=O)N[C@@H](CCCCN)C(=O)N[C@@H](CC(N)=O)C(=O)N[C@@H](CCCCN)C(=O)N[C@@H](CCC(N)=O)C(=O)N[C@H](C(=O)N[C@@H](CC(C)C)C(=O)N[C@@H](CCC(=O)O)C(=O)N[C@@H](CCC(N)=O)C(=O)N[C@H](C(N)=O)C(C)C)[C@@H](C)CC)[C@@H](C)CC)[C@@H](C)CC)C(C)C)C(C)C` [compound 137] (H-IVLSLD[dV]PIKLK([AEEA-AEEA-γGlu-C18 diacid])QILLKQERQKKQREQAEKNKQILEQV-NH2; N-terminus assumed), on CRF1R receptor, the EC50 was greater than 1000 nM and the maximum response (Emax) stood at 22.5%. Further, the “Relative purity loss [%]” value in series [2] turned out to be 4.80%.

`CC[C@H](C)[C@H](N)C(=O)N[C@H](C(=O)N[C@@H](CC(C)C)C(=O)N[C@@H](CO)C(=O)N[C@@H](CC(C)C)C(=O)N[C@@H](CC(=O)O)C(=O)N[C@@H](C(=O)N1CCC[C@H]1C(=O)N[C@H](C(=O)N[C@@H](CCCCN)C(=O)N[C@@H](CC(C)C)C(=O)N[C@@H](CCCCNC(=O)COCCOCCNC(=O)COCCOCCNC(=O)CC[C@H](NC(=O)CCCCCCCCCCCCCCCCC(=O)O)C(=O)O)C(=O)N[C@@H](CCC(N)=O)C(=O)N[C@H](C(=O)N[C@@H](CC(C)C)C(=O)N[C@@H](CC(C)C)C(=O)N[C@@H](CCCCN)C(=O)N[C@@H](CCC(N)=O)C(=O)N[C@@H](CCC(=O)O)C(=O)N[C@@H](CCCNC(=N)N)C(=O)N[C@@H](CCC(N)=O)C(=O)N[C@@H](CCCCN)C(=O)N[C@@H](CCCCN)C(=O)N[C@@H](CCC(N)=O)C(=O)N[C@@H](CCCNC(=N)N)C(=O)N[C@@H](CCC(N)=O)C(=O)N[C@@H](CCC(N)=O)C(=O)N[C@@H](C)C(=O)N[C@@H](CCC(=O)O)C(=O)N[C@@H](CCCCN)C(=O)N[C@@H](CC(N)=O)C(=O)N[C@@H](CCCCN)C(=O)N[C@@H](CCC(N)=O)C(=O)N[C@H](C(=O)N[C@@H](CC(C)C)C(=O)N[C@@H](C)C(=O)N[C@@H](CCC(N)=O)C(=O)N[C@H](C(N)=O)C(C)C)[C@@H](C)CC)[C@@H](C)CC)[C@@H](C)CC)C(C)C)C(C)C` [compound 139] (H-IVLSLD[dV]PIKLK([AEEA-AEEA-γGlu-C18 diacid])QILLKQERQKKQRQQAEKNKQILAQV-NH2; N-terminus assumed): at CRF1R receptor, the EC50 is greater than 1000 nM and the Emax is 37.6%. Besides, the “Relative purity loss [%]” value in series [2] is reported as 3.05%.
